# Literature values as cited in US20110263659A1, “Analogs of 1-Methylnicotinamide” (Cortria Corporation, priority 2008, published 2011).
# Tests used:
# [1] = human subjects; studies from Smolenski et al.
# [2] = system: prostacyclin (PGI2) release; conditions: preclinical; PCT/IB06/004013, PCT/EP05/050057, US 11/715,660
# [3] = di-hydro-MNA 1 mmol/kg s.c., HPLC
increase of brain tissue levels of 1-MNA (factor) (di-hydro-MNA 1 mmol/kg s.c.),increase in liver 1-MNA levels [3] [fold],increase in plasma 1-MNA levels [3] [fold],maximum 1-MNA levels in brain extracellular fluid (di-hydro-MNA 1-3 mmol/kg s.c.) [µM],Compound,half life [1] [h],ability to stimulate the release of prostacyclin (PGI2) [2]
–,–,–,–,1-Methylnicotinamide [1-MNA],2 to 3,ability to stimulate the release of prostacyclin (PGI2)
twenty,9,4,> 10,"CN1C=CCC(C(N)=O)=C1 [di-hydro-MNA, 1,4-dihydro-1-methylnicotinamide]",–,–
